Assay type in all cases: in vivo
For assay [1], the system named is Sorghum bicolor. Description: Herbicidal action in the field (post-emergence treatment). The conditions noted are these: atrazine 840 g/ha a.s. The text has this:
(§1) The mixtures according to the invention were applied pre- or post-emergence (foliar treatment). The herbicidal compounds of component B were applied in the formulation in which they are present as commercially available product.
(§2) Some of the experiments were greenhouse experiments and some were field trials on mini plots (on a site with sandy loam (pH 6.2 to 7.0) or sandy clay (pH 5.0 to 6.7) as the soil).
(§3) The harmful plants differed with regard to size and developmental state; on average, they were 5 to 20 cm long, depending on the growth habit.
(§4) The herbicidally active compounds of components A) and B) were applied in succession or jointly, in the latter case in some cases as a tank mix and in some cases as a readymix, in the form of emulsions, aqueous solutions or suspensions, the vehicle being water ([…]). In the case of the field trials, application was effected with the aid of a mobile plot sprayer.
(§5) The test period extended over 3 to 8 weeks, and the stands were also observed at later points in time.
(§6) Damage by the herbicidal compositions was evaluated with reference to a scale of 0% to 100% in comparison with untreated control plots. 0 means no damage and 100 means complete destruction of the plants.
(§7) In these examples, the value E at which only an additive effect of the individual active ingredients is to be expected was calculated by the method of S. R. Colby (Calculating synergistic and antagonistic responses of herbicide combinations, Weeds 15, 20 pp (1967).

The subject of assay [2] is Abutilon theophrasti. The description is as above.
Description: as §1, §2, §3, §4, §5, §6, §7

For assay [3], the system named is Setaria faberi. The assay is described as above.
Description: as §1, §2, §3, §4, §5, §6, §7

In assay [4] the test system is Geranium carolinianum. Described as above. The settings on record: glyphosate 840 g/ha a.s.
Description: as §1, §2, §3, §4, §5, §6, §7

For assay [5], the system named is Sorghum halepense. The assay is described as above. The conditions noted are these: glyphosate 840 g/ha a.s.
Description: as §1, §2, §3, §4, §5, §6, §7

In assay [6] the test system is Digitaria adscendens. The assay is described as above.
Description: as §1, §2, §3, §4, §5, §6, §7

The test system of assay [7] is Amaranthus retroflexus. Description: Herbicidal action in the greenhouse (post-emergence treatment).
Description: as §1, §2, §3, §4, §5, §6, §7

For assay [8], the system named is Abutilon theophrasti. Described as above.
Description: as §1, §2, §3, §4, §5, §6, §7

The subject of assay [9] is Phalaris spec. Description: Herbicidal action in the field (post-emergence treatment). The conditions noted are these: 2,4-D 500 g/ha a.s.
Description: as §1, §2, §3, §4, §5, §6, §7

In assay [10] the test system is Veronica ssp. Description: Herbicidal action in the greenhouse (post-emergence treatment).
Description: as §1, §2, §3, §4, §5, §6, §7

In assay [11] the test system is Cyperus species. The assay can be described thus: Herbicidal action in the field (post-emergence treatment).
Description: as §1, §2, §3, §4, §5, §6, §7

The subject of assay [12] is Setaria faberi. Description: Herbicidal action in the greenhouse (post-emergence treatment). The settings on record: glufosinate-ammonium 31.2 g/ha a.s.
Description: as §1, §2, §3, §4, §5, §6, §7

Assay [13] deals with Echinochloa crus-galli. The description is as above.
Description: as §1, §2, §3, §4, §5, §6, §7

Assay [14] relates to Ipomoea acuminata. Description: Herbicidal action in the field (post-emergence treatment).
Description: as §1, §2, §3, §4, §5, §6, §7

For assay [15], the system named is Brachiaria plantaginea. The description is as above. The conditions noted are these: pendimethalin 990 g/ha a.s.
Description: as §1, §2, §3, §4, §5, §6, §7

For assay [16], the system named is Bidens pilosa. The description is as above.
Description: as §1, §2, §3, §4, §5, §6, §7

Assay [17] has as its system Ipomoea lacunosa. Described as above. The settings on record: nicosulfuron 35 g/ha a.s.
Description: as §1, §2, §3, §4, §5, §6, §7

Assay [18] relates to Setaria viridis. Description: Herbicidal action in the greenhouse (post-emergence treatment). The settings on record: isoxaflutole 31.2 g/ha a.s.
Description: as §1, §2, §3, §4, §5, §6, §7

Assay [19] relates to Ipomoea ssp. The assay is described as above.
Description: as §1, §2, §3, §4, §5, §6, §7

Assay [20] deals with Alopecurus myosuroides. Description: Herbicidal action in the field (post-emergence treatment). The conditions noted are these: fenoxaprop-ethyl 83 g/ha a.s.
Description: as §1, §2, §3, §4, §5, §6, §7

The test system of assay [21] is Galium aparine. Described as above.
Description: as §1, §2, §3, §4, §5, §6, §7

The subject of assay [22] is Stellaria media. The assay is described as above.
Description: as §1, §2, §3, §4, §5, §6, §7

The test system of assay [23] is Ipomoea purpurea var. diversifolia. Described as above.
Description: as §1, §2, §3, §4, §5, §6, §7

Assay [24] has as its system Alopecurus myosuroides. The assay can be described thus: Herbicidal action in the greenhouse (post-emergence treatment).
Description: as §1, §2, §3, §4, §5, §6, §7

The test system of assay [25] is Setaria viridis. Description: Herbicidal action in the field (post-emergence treatment). The conditions noted are these: Sethoxydim 160 g/ha a.s.
Description: as §1, §2, §3, §4, §5, §6, §7

For assay [26], the system named is Digitaria sanguinalis. The assay is described as above. The conditions noted are these: Cycloxydim 100 g/ha a.s.
Description: as §1, §2, §3, §4, §5, §6, §7

Assay [27] deals with Chenopodium album. The description is as above. The settings on record: Cycloxydim 100 g/ha a.s.
Description: as §1, §2, §3, §4, §5, §6, §7

The mark [28] stands for this setting: glufosinate-ammonium 400 g/ha a.s.

As to `CCNc1nc(Cl)nc(NC(C)C)n1` [atrazine, reference compound], the Damage is recorded as 27% in assay [1], 32% in [2] (atrazine 1120 g/ha a.s.) and 20% in assay [3] (atrazine 1120 g/ha a.s.).
Regarding `O=C(O)CNCP(=O)(O)O` [glyphosate, reference compound], the results for the Damage in assay [4] and in assay [5] were 97% and 74%, respectively.
`CC(C)N(C(=O)COc1nnc(C(F)(F)F)s1)c1ccc(F)cc1` [flufenacet, reference compound]: the Damage in assay [6] (flufenacet 600 g/ha a.s.) stood at 58%.
For the molecule `O=C(O)COc1ccc(Cl)cc1Cl` [2,4-D, reference compound], the Damage in [7] (2,4-D 62.5 g/ha a.s.) is 20%; in assay [8] (2,4-D 62.5 g/ha a.s.) it was 40%; in assay [9] it was 20%.
As to `COc1cc(OC)n2nc(S(=O)(=O)Nc3c(Cl)ccc(C)c3Cl)nc2n1` [metosulam, reference compound], the Damage in assay [10] (metosulam 1.9 g/ha a.s.) is given as 40%.
In the case of `Cc1cc(Cl)ccc1OCC(=O)O` [MCPA, reference compound], the Damage in assay [11] (MCPA 600 g/ha a.s.) amounted to 5%.
For `CP(=O)(O)CCC(N)C(=O)O` (stereo not shown) [glufosinate-ammonium, reference compound], the Damage was 65% in [12], 0% in assay [13] (glufosinate-ammonium 15.6 g/ha a.s.), 75% in assay [6] (setting [28]) and 75% in [14] (setting [28]).
Turning to `CCC(CC)Nc1c([N+](=O)[O-])cc(C)c(C)c1[N+](=O)[O-]` [pendimethalin, reference compound], the Damage in assay [15] worked out at 0%.
For the molecule `CSc1nnc(C(C)(C)C)c(=O)n1N` [metribuzin, reference compound], the Damage in [16] (metribuzin 200 g/ha a.s.) is 38%; in assay [11] (metribuzin 200 g/ha a.s.), 50%.
With `COc1cc(OC)nc(NC(=O)NS(=O)(=O)c2ncccc2C(=O)N(C)C)n1` [nicosulfuron, reference compound], the pest or weed control at 1.9 g/ha in assay [7] (Amaranthus retroflexus, post-emergence, nicosulfuron 1.9 g/ha a.s., read-out: Damage) is 65%. In assay [17], the Damage was determined as 39%.
Consider `CS(=O)(=O)c1ccc(C(=O)C2C(=O)CCCC2=O)c(Cl)c1` [sulcotrione, reference compound], for which, in [7] (Amaranthus retroflexus, post-emergence, read-out: Damage, sulcotrione 250 g/ha a.s.), the pest or weed control at 250 g/ha turned out to be 45%. The Damage in assay [14] (sulcotrione 300 g/ha a.s.) is given as 86%.
As to `CS(=O)(=O)c1cc(C(F)(F)F)ccc1C(=O)c1cnoc1C1CC1` [isoxaflutole, reference compound], the Damage in assay [18] amounted to 30%; in assay [19] (isoxaflutole 62.5 g/ha a.s.), 55%.
`CCOC(=O)C(C)Oc1ccc(Oc2nc3ccc(Cl)cc3o2)cc1` (stereo not shown) [fenoxaprop-ethyl, reference compound]: the pest or weed control at 31.2 g/ha in [7] (Amaranthus retroflexus, post-emergence, fenoxaprop-ethyl (title: fenoxaprop-P-ethyl) 31.2 g/ha a.s., read-out: Damage) is 0%. Besides, the Damage was 82% in assay [20] and 0% in [21] (fenoxaprop-ethyl 83 g/ha a.s.).
As to `N#Cc1cc(Br)c(O)c(Br)c1` [bromoxynil, reference compound], the Damage in assay [21] (bromoxynil 470 g/ha a.s.) came out at 84%.
With `CC(C)c1ccc(NC(=O)N(C)C)cc1` [isoproturon, reference compound], the Damage in assay [22] (isoproturon 1000 g/ha a.s.) worked out at 94%.
For `O=C(O)c1cc(Oc2ccc(C(F)(F)F)cc2Cl)ccc1[N+](=O)[O-]` [acifluorfen, reference compound], in assay [21] (acifluorfen 100 g/ha a.s.), the Damage is recorded as 48%.
As to `CCc1cnc(C2=NC(C)(C(C)C)C(=O)N2)c(C(=O)O)c1` (stereo not shown) [imazethapyr, reference compound], the Damage is 58% in assay [23] (imazethapyr 70 g/ha a.s.) and 33% in assay [14] (imazethapyr 70 g/ha a.s.).
For the molecule `CC(C)C1(C)N=C(c2ncccc2C(=O)O)NC1=O` (stereo not shown) [imazapyr, reference compound], the Damage worked out at 90% in [24] (imazapyr 250 g/ha a.s.) and 85% in assay [19] (imazapyr 62.5 g/ha a.s.).
Consider imazamethabenz [reference compound], for which the Damage in [22] (imazamethabenz 525 g/ha a.s.) is given as 0%.
Regarding `CC(C)C1(C)N=C(c2nc3ccccc3cc2C(=O)O)NC1=O` (stereo not shown) [imazaquin, reference compound], the Damage in [16] (imazaquin 150 g/ha a.s.) is recorded as 45%.
Turning to `Nc1cnn(-c2ccccc2)c(=O)c1Cl` [chloridazon, reference compound], in [23] (chloridazon 1720 g/ha a.s.), the Damage is 40%.
For `COc1nc(NC(=O)NS(=O)(=O)c2ccccc2C(F)(F)F)nc(C(F)(F)F)n1` [N-[[[4-methoxy-6-(trifluoromethyl)-1,3,5-triazin-2-yl]amino]carbonyl]-2-(trifluoromethyl)benzenesulfonamide, reference compound], the Damage in assay [3] (the benzenesulfonamide (B2) 50 g/ha a.s.) stood at 0%.
As to `CCOC(=O)/C(Cl)=C/c1cc(N2C(=O)C3=C(CCCC3)C2=O)ccc1Cl` [cinidon-ethyl, reference compound], the Damage in assay [21] (cinidon-ethyl 7.8 g/ha a.s.) is 90%.
In the case of `CCCCCCCCSC(=O)Oc1cc(Cl)nnc1-c1ccccc1` [pyridate, reference compound], the values for the Damage in assay [16] (pyridate 450 g/ha a.s.) and in assay [3] (pyridate 450 g/ha a.s.) were 25% and 0%, respectively.
As to `CCC/C(=N\OCC)C1=C(O)CC(CC(C)SCC)CC1=O` (stereo not shown) [Sethoxydim, sethoxydim, reference compound], the results for the Damage in assay [25] and in assay [2] (Sethoxydim 160 g/ha a.s.) were 93% and 0%, respectively.
As to `COC(=O)c1c(Cl)nn(C)c1S(=O)(=O)NC(=O)Nc1nc(OC)cc(OC)n1` [halosulfuron-methyl, reference compound], in [7] (Amaranthus retroflexus, post-emergence, read-out: Damage, halosulfuron-methyl 7.8 g/ha a.s.), the pest or weed control at 7.8 g/ha stood at 80%. In [24] (halosulfuron-methyl 31.2 g/ha a.s.), the Damage was determined as 45%.
As to `COc1cc(OC)nc(Sc2cccc(Cl)c2C(=O)O)n1` [pyrithiobac-sodium, reference compound], the Damage in assay [13] (pyrithiobac-sodium 7.8 g/ha a.s.) came out at 10%.
As to `O=C(O)c1c(Cl)ccc2cc(Cl)cnc12` [Quinclorac, quinclorac, reference compound], the Damage was found to be 70% in assay [19] (Quinclorac 250 g/ha a.s.) and 80% in assay [10] (Quinclorac 500 g/ha a.s.).
In the case of `CCCC(=NOCC)C1=C(O)CC(C2CCCSC2)CC1=O` (stereo not shown) [Cycloxydim, cycloxydim, reference compound], the Damage came out at 81% in [26] and 0% in assay [27].
For `CCOCN(C(=O)CCl)c1c(C)cccc1CC` [acetochlor, reference compound], the Damage in assay [8] (acetochlor 31.2 g/ha a.s.) was determined as 0%.
Consider `CN(C)C(=O)Nc1ccc(Cl)c(Cl)c1` [diuron, reference compound], for which, in assay [24] (diuron 250 g/ha a.s.), the Damage is 80%.
